Columns and labels:
[1] = biological target: Tyk2/JAK2 (heterodimeric complex) (Homo sapiens (Human), UniProt P29597); assay: IL-12 Induced pSTAT4 in Human PBMC; type: cell-based; conditions: 1.7 ng/mL IL-12
Source text: The IL-12 Induced pSTAT4 assay evaluates the inhibition of IL-12 induced STAT4 phophorylation mediated by Tyk2/JAK2 (heterodimeric complex).

[2] = biological target: JAK2 kinase domain (JH1) (Homo sapiens (Human), UniProt O60674); assay: JAK2 Radioactive Kinase Assay; type: biochemical; conditions: compound at 10 μM; ATP 10 μM; read-out: JAK2 JH1% Inhibition @ 10 μM
JAK2 kinase domain (JH1), sequence (O60674 849-1124): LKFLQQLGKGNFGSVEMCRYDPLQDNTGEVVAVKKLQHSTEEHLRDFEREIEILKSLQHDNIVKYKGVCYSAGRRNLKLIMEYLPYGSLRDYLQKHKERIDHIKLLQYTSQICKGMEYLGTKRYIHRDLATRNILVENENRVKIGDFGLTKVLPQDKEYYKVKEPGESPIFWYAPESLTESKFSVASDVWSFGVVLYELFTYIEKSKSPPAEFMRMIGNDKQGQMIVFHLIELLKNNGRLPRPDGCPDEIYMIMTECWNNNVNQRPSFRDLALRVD
Outline: (§1)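 Read-out is percent inhibition from a radioactive kinase reaction, measured with compound at 10 μM.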

[3] = biological target: human TYK2 (JH2domain-pseudokinase) (Homo sapiens (Human), UniProt P29597); assay: TYK2 JH2 Domain Binding Assay (KINOMEscan)
human TYK2 (JH2domain-pseudokinase), sequence (P29597 556-888): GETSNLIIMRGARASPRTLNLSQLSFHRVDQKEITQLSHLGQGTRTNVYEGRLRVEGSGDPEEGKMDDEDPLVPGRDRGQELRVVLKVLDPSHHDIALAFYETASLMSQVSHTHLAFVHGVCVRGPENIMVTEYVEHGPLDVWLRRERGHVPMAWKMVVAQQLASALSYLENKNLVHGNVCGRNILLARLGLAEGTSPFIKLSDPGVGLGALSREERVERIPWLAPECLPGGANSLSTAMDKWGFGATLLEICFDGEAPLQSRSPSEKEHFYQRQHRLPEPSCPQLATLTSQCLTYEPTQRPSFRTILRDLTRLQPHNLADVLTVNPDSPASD
Outline: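 The construct was human TYK2 G556–D888 fused to the NFkB DNA-binding domain and expressed in HEK293 cells; unpurified extract was incubated with compound and liganded beads for 1 hour at room temperature.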

[4] = biological target: Tyk2 kinase domain (DH1) (Homo sapiens (Human), UniProt P29597); assay: Tyk2 Radioactive Kinase Assay; type: biochemical; conditions: compound at 10 μM; ATP 10 μM; read-out: Tyk2 JH1% Inhibition @ 10 μM
Tyk2 kinase domain (DH1), sequence (P29597 897-1176): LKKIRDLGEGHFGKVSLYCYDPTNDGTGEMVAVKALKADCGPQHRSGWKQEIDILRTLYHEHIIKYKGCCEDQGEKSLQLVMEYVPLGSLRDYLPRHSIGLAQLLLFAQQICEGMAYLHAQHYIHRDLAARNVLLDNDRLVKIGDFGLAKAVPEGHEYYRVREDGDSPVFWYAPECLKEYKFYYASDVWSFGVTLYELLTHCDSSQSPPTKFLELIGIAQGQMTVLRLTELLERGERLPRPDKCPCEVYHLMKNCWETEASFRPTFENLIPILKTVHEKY
Outline: as §1

[5] = biological target: JAK2/JAK2 homdimeric complex (Homo sapiens (Human), UniProt O60674); assay: GM-CSF Induced pSTAT5 in Human PBMC; type: cell-based; conditions: GM-CSF 5 ng/mL for 20 minutes, pSTAT5 by MSD, read-out: PBMC_GMCSF_pSTAT5 IC50
JAK2/JAK2 homdimeric complex, sequence (O60674 whole entry): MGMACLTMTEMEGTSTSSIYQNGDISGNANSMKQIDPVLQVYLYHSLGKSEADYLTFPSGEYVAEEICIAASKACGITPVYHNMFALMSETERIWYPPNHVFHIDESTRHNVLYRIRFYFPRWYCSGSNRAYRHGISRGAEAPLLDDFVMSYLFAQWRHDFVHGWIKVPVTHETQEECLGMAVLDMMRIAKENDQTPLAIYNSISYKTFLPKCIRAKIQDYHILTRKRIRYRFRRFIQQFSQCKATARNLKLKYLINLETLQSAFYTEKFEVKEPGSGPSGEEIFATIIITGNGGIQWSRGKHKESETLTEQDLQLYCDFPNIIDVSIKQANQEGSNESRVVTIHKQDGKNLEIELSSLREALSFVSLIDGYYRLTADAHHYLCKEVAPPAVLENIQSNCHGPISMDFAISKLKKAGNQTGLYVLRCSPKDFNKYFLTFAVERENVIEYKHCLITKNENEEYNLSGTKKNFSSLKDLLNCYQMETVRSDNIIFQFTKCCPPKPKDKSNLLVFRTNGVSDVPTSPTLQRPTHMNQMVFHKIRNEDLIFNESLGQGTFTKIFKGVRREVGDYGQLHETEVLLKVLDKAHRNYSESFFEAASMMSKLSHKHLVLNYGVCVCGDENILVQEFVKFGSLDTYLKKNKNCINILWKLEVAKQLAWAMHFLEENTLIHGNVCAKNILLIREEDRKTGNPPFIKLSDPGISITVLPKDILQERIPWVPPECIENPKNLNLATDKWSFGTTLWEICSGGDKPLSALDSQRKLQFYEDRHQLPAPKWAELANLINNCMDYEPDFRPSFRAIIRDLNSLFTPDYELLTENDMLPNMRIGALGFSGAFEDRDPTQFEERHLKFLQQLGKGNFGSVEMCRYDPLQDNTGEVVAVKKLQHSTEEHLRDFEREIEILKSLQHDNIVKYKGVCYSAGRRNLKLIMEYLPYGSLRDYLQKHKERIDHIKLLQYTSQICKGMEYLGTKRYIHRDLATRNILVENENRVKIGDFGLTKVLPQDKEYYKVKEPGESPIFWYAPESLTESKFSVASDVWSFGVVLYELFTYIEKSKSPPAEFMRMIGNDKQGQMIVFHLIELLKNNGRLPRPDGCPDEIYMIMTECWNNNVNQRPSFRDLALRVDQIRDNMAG
JAK2/JAK2 homdimeric complex, sequence (P32927 17-897 partner): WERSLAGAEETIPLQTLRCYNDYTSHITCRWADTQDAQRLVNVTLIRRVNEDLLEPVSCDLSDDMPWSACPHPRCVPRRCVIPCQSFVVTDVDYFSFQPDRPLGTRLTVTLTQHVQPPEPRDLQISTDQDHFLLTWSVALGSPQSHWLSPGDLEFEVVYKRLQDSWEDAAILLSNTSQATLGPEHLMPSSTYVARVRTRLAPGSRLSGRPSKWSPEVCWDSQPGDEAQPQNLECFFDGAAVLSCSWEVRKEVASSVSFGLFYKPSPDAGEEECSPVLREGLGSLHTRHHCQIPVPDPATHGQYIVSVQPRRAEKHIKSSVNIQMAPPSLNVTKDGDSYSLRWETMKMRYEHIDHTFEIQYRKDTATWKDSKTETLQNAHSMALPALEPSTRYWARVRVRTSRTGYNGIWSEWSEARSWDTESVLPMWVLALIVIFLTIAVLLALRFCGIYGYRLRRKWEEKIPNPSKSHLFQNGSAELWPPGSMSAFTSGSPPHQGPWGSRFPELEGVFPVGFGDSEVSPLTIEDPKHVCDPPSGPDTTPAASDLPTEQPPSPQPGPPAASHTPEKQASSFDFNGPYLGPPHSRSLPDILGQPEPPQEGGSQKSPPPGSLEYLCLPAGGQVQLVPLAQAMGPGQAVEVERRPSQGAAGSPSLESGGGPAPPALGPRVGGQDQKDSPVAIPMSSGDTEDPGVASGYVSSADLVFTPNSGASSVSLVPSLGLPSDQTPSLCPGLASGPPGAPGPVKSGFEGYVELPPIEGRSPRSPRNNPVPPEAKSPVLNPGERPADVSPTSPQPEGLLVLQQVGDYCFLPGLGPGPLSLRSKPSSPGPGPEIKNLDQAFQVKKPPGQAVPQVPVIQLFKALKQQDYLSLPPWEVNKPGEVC

Tyk2/JAK2 (heterodimeric complex), sequence (P29597 whole entry, other chains not shown): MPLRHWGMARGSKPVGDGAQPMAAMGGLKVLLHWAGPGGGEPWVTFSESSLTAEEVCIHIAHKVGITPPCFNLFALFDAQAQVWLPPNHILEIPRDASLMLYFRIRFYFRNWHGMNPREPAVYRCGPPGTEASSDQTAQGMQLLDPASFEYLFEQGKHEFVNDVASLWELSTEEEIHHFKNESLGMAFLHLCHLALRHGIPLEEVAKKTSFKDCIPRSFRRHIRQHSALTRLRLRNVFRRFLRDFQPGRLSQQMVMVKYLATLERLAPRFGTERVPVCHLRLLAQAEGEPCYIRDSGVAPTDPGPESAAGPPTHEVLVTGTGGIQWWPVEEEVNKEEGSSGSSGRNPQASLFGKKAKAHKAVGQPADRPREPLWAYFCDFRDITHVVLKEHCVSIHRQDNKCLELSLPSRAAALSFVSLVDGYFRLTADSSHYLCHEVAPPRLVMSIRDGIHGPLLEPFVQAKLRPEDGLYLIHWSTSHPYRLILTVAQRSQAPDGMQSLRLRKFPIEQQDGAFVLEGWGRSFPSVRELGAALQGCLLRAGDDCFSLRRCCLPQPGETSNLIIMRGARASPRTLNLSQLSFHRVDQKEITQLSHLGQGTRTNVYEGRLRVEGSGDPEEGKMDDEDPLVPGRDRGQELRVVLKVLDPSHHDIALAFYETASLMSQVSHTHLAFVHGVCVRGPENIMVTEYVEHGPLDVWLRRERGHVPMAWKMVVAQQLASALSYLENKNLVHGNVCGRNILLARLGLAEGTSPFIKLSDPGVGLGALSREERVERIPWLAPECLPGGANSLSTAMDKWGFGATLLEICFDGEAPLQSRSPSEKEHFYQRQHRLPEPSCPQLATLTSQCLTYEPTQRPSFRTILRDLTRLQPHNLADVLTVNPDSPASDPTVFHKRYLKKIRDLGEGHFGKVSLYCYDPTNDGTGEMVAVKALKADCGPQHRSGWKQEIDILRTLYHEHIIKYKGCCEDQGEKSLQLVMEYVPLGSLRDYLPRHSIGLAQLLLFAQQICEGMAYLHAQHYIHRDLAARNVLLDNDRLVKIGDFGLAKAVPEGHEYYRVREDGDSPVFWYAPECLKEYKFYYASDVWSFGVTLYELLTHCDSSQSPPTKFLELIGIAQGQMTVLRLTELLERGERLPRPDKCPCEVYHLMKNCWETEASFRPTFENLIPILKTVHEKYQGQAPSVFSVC

CNc1cc(Nc2cccn(-c3ccc(F)cc3)c2=O)nc2c(C(=O)N[C@H]3C[C@H]3F)cnn12 [I-132]
IC50 [1]: < 100 nM | inhibition at 10 µM [2]: < 50% | Kd [3]: < 0.2 nM | inhibition at 10 µM [4]: < 50% | IC50 [5]: > 2500 nM

CCn1cc(Cl)cc(Nc2cc(NC)n3ncc(C(=O)NC4CC4)c3n2)c1=O [I-133, 5-((5-chloro-1-ethyl-2-oo-1,2-dihydropyridin-3-yl)amino)-N-cyclopropyl-7-(methylamino)pyrazolo[1,5-a]pyrimidine-3-carboxamide]
IC50 [1]: < 100 nM | inhibition at 10 µM [2]: < 50% | Kd [3]: < 0.2 nM | inhibition at 10 µM [4]: < 50% | IC50 [5]: > 12500 nM

CNc1cc(Nc2cccn(-c3ccc(N4CCOCC4)cc3)c2=O)nc2c(C(=O)N[C@H]3C[C@H]3F)cnn12 [I-135]
IC50 [1]: < 100 nM | inhibition at 10 µM [2]: < 50% | Kd [3]: < 0.2 nM | inhibition at 10 µM [4]: < 50% | IC50 [5]: > 2500 nM

CNc1cc(Nc2cccn(-c3cc(C)n(C)n3)c2=O)nc2c(C(=O)NC3CCC3)cnn12 [I-136]
IC50 [1]: < 100 nM | inhibition at 10 µM [2]: < 50% | Kd [3]: < 0.2 nM | inhibition at 10 µM [4]: < 50% | IC50 [5]: > 2500 nM

CNc1cc(Nc2cccn(-c3cc(C)n(C)n3)c2=O)nc2c(C(=O)N[C@H]3C[C@H]3F)cnn12 [I-137]
IC50 [1]: < 100 nM | inhibition at 10 µM [2]: < 50% | Kd [3]: < 0.2 nM | inhibition at 10 µM [4]: < 50% | IC50 [5]: > 50000 nM

CNc1cc(Nc2cccn(-c3cc(C)n(C)n3)c2=O)nc2c(C(=O)NC3CC3)cnn12 [I-138]
IC50 [1]: < 100 nM | inhibition at 10 µM [2]: < 50% | Kd [3]: < 0.2 nM | inhibition at 10 µM [4]: < 50% | IC50 [5]: > 50000 nM

CNc1cc(Nc2cccn(-c3ccn(C)n3)c2=O)nc2c(C(=O)NC3CCC3)cnn12 [I-139]
IC50 [1]: < 100 nM | inhibition at 10 µM [2]: < 50% | Kd [3]: < 0.2 nM | inhibition at 10 µM [4]: < 50% | IC50 [5]: > 50000 nM

CNc1cc(Nc2cccn(-c3ccc(C)nn3)c2=O)nc2c(C(=O)NC3CCC3)cnn12 [I-141]
IC50 [1]: < 100 nM | inhibition at 10 µM [2]: < 50% | Kd [3]: < 0.2 nM | inhibition at 10 µM [4]: < 50% | IC50 [5]: > 50000 nM

CNc1cc(Nc2cccnc2OC(C)C)nc2c(C(=O)NC3CCC3)cnn12 [I-145]
IC50 [1]: 100 to 500 nM | inhibition at 10 µM [2]: < 50% | Kd [3]: < 0.2 nM | inhibition at 10 µM [4]: < 50% | IC50 [5]: > 50000 nM

CNc1cc(Nc2cccnc2OC(C)C)nc2c(C(=O)N[C@H]3C[C@H]3F)cnn12 [I-147]
IC50 [1]: < 100 nM | inhibition at 10 µM [2]: < 50% | Kd [3]: < 0.2 nM | inhibition at 10 µM [4]: < 50% | IC50 [5]: > 50000 nM

CNc1cc(Nc2cccnc2OC(F)F)nc2c(C(=O)NC3CCC3)cnn12 [I-151]
IC50 [1]: < 100 nM | inhibition at 10 µM [2]: < 50% | Kd [3]: < 0.2 nM | inhibition at 10 µM [4]: < 50% | IC50 [5]: > 50000 nM

CNc1cc(Nc2cccnc2OC(F)F)nc2c(C(=O)N[C@H]3C[C@H]3F)cnn12 [I-153]
IC50 [1]: < 100 nM | inhibition at 10 µM [2]: 50 to 70% | Kd [3]: < 0.2 nM | inhibition at 10 µM [4]: < 50% | IC50 [5]: > 12500 nM

CNc1cc(Nc2cccnc2OC(F)F)nc2c(C(=O)NC3CC3)cnn12 [I-154]
IC50 [1]: < 100 nM | inhibition at 10 µM [2]: 50 to 70% | Kd [3]: 0.2 to 1 nM | inhibition at 10 µM [4]: < 50% | IC50 [5]: > 12500 nM

CNc1cc(Nc2cccn(-c3cccc(C(C)(C)O)n3)c2=O)nc2c(C(=O)NC3CCC3)cnn12 [I-156]
IC50 [1]: < 100 nM | inhibition at 10 µM [2]: < 50% | Kd [3]: < 0.2 nM | inhibition at 10 µM [4]: < 50% | IC50 [5]: > 12500 nM

CNc1cc(Nc2cccn(-c3ccon3)c2=O)nc2c(C(=O)NC3CCC3)cnn12 [I-158]
IC50 [1]: < 100 nM | inhibition at 10 µM [2]: < 50% | Kd [3]: < 0.2 nM | inhibition at 10 µM [4]: < 50% | IC50 [5]: > 50000 nM

CNc1cc(Nc2cccn(-c3cc(C)on3)c2=O)nc2c(C(=O)NC3CCC3)cnn12 [I-160]
IC50 [1]: < 100 nM | inhibition at 10 µM [2]: < 50% | Kd [3]: < 0.2 nM | inhibition at 10 µM [4]: < 50% | IC50 [5]: > 12500 nM

CNc1cc(Nc2cccn(-c3cc(C)on3)c2=O)nc2c(C(=O)N[C@H]3C[C@H]3F)cnn12 [I-161]
IC50 [1]: < 100 nM | inhibition at 10 µM [2]: < 50% | Kd [3]: < 0.2 nM | inhibition at 10 µM [4]: < 50% | IC50 [5]: > 12500 nM

CNc1cc(Nc2cccn(-c3cc(C)on3)c2=O)nc2c(C(=O)NC3CC3)cnn12 [I-162]
IC50 [1]: < 100 nM | inhibition at 10 µM [2]: < 50% | Kd [3]: < 0.2 nM | inhibition at 10 µM [4]: < 50% | IC50 [5]: > 2500 nM

CNc1cc(Nc2cccn(-c3ccc(N4CCOCC4)cn3)c2=O)nc2c(C(=O)NC3CCC3)cnn12 [I-163]
IC50 [1]: < 100 nM | inhibition at 10 µM [2]: < 50% | Kd [3]: 0.2 to 1 nM | inhibition at 10 µM [4]: < 50% | IC50 [5]: > 2500 nM

CNc1cc(Nc2cc(Cl)cn(-c3ccc(C)nn3)c2=O)nc2c(C(=O)N[C@H]3C[C@H]3F)cnn12 [I-164]
IC50 [1]: < 100 nM | inhibition at 10 µM [2]: < 50% | Kd [3]: < 0.2 nM | inhibition at 10 µM [4]: < 50% | IC50 [5]: > 50000 nM

CNc1cc(Nc2cccn(-c3ccc(C4CC4)nn3)c2=O)nc2c(C(=O)N[C@H]3C[C@H]3F)cnn12 [I-165]
IC50 [1]: < 100 nM | inhibition at 10 µM [2]: < 50% | Kd [3]: < 0.2 nM | inhibition at 10 µM [4]: < 50% | IC50 [5]: > 2500 nM

CNc1cc(Nc2cccnc2OC2CCC2)nc2c(C(=O)N[C@H]3C[C@H]3F)cnn12 [I-170]
IC50 [1]: < 100 nM | inhibition at 10 µM [2]: < 50% | Kd [3]: < 0.2 nM | inhibition at 10 µM [4]: < 50% | IC50 [5]: > 50000 nM

[2H]C([2H])([2H])Oc1ncccc1Nc1cc(NC)n2ncc(C(=O)NC3CCC3)c2n1 [I-176]
IC50 [1]: < 100 nM | inhibition at 10 µM [2]: < 50% | Kd [3]: < 0.2 nM | inhibition at 10 µM [4]: < 50% | IC50 [5]: > 50000 nM

[2H]C([2H])([2H])Oc1ncccc1Nc1cc(NC)n2ncc(C(=O)N[C@H]3C[C@H]3F)c2n1 [I-177]
IC50 [1]: < 100 nM | inhibition at 10 µM [2]: < 50% | Kd [3]: < 0.2 nM | inhibition at 10 µM [4]: < 50% | IC50 [5]: > 12500 nM

CNc1cc(Nc2cccn([C@H]3CC[C@@H](N4CCOCC4)CC3)c2=O)nc2c(C(=O)NC3CCC3)cnn12 [I-182]
IC50 [1]: < 100 nM | inhibition at 10 µM [2]: < 50% | Kd [3]: < 0.2 nM | inhibition at 10 µM [4]: < 50% | IC50 [5]: > 2500 nM

CNc1cc(-c2c[nH]c3c(C4CCOCC4)cc(Cl)cc23)nc2c(C(N)=O)cnn12 [I-190]
IC50 [1]: < 100 nM | inhibition at 10 µM [2]: < 50% | Kd [3]: < 0.2 nM | inhibition at 10 µM [4]: < 50% | IC50 [5]: > 12500 nM

CNc1cc(Nc2cccn(C3CCN(CC(F)F)CC3)c2=O)nc2c(C(=O)NC3CCC3)cnn12 [I-192]
IC50 [1]: < 100 nM | inhibition at 10 µM [2]: < 50% | Kd [3]: < 0.2 nM | inhibition at 10 µM [4]: < 50% | IC50 [5]: > 12500 nM

CNc1cc(Nc2cc(F)cn(-c3ccccn3)c2=O)nc2c(C(=O)NC3CCC3)cnn12 [I-193]
IC50 [1]: < 100 nM | inhibition at 10 µM [2]: < 50% | Kd [3]: 0.2 to 1 nM | inhibition at 10 µM [4]: < 50% | IC50 [5]: > 12500 nM

CNc1cc(Nc2cc(F)cn(-c3ccccn3)c2=O)nc2c(C(=O)N[C@H]3C[C@H]3F)cnn12 [I-194]
IC50 [1]: < 100 nM | inhibition at 10 µM [2]: < 50% | Kd [3]: < 0.2 nM | inhibition at 10 µM [4]: < 50% | IC50 [5]: > 12500 nM

Source: patent US10508120B2, “TYK2 inhibitors and uses thereof” (Nimbus Lakshmi, Inc., priority 2017, dated 2019)
